The test system of one experiment is Glomerella lagenarium. Description: Glomerella lagenarium syn Colletotrichum lagenarium (anthracnose), growth inhibition in nutrient broth. As to conditions: Colletotrichum orbiculare, PDB broth, 24° C., 72 hours, photometric at 620 nm, compared to untreated control. The class given is cell-based. As to the method:
(§1) Conidia of the fungus from cryogenic storage were directly mixed into nutrient broth (PDB potato dextrose broth). A DMSO solution of the test compounds was placed into a microtiter plate (96-well format) and the nutrient broth containing the fungal spores was added to it. The test plates were incubated at 24° C. and the inhibition of growth was determined photometrically after 72 hours at 620 nm.

The subject of another experiment is Pyrenophora teres. Description: Pyrenophora teres (net blotch of barley), barley leaf segments, preventive. The class given is in vivo. As to conditions: 200 ppm, assessed 4 dpi, compared to untreated control. On the procedure:
Barley leaf segments are placed on agar in multiwell plates (24-well format) and sprayed with test solutions. After drying, the leaf disks are inoculated with a spore suspension of the fungus. After appropriate incubation, the activity of a compound is assessed 4 dpi (days after inoculation) as preventive fungicidal activity.

A further experiment relates to Monographella nivalis. Briefly: Monographella nivalis syn. Microdochium nivale (snow mould, foot rot), growth inhibition in nutrient broth. The experiment is classed as cell-based. The conditions noted are these: "at ppm" (concentration not given); PDB broth, 24° C., 72 hours, photometric at 620 nm; compared to untreated control. On the procedure:
as §1

For a further experiment, the system named is Sclerotinia sclerotiorum. Description: Sclerotinia sclerotiorum (cottony rot, white mold), growth inhibition in nutrient broth. The experiment is classed as cell-based. As to conditions: 20 ppm; PDB broth, 24° C., 72 hours, photometric at 620 nm; compared to untreated control. As to the method: Mycelial fragments of the fungus prepared from a fresh liquid culture were directly mixed into nutrient broth (PDB potato dextrose broth). A DMSO solution of the test compounds was placed into a microtiter plate (96-well format) and the nutrient broth containing the fungal spores was added to it. The test plates were incubated at 24° C. and the inhibition of growth was determined photometrically after 72 hours at 620 nm.

In another experiment the test system is Alternaria solani. Briefly: Alternaria solani (early blight of tomato), tomato leaf disks, preventive. As to conditions: 200 ppm, assessed 4 dpi, compared to untreated control. The class given is in vivo. As to the method:
Alternaria solani (Early Blight of Tomato) Tomato leaf disks are placed on water agar in multiwell plates (24-well format) and sprayed with test solutions. After drying, the leaf disks are inoculated with a spore suspension of the fungus. After appropriate incubation the activity of a compound is assessed 4 dpi (days post inoculation) as preventive fungicidal activity.

Where only a bound is given, the exact number is not on record here.

The source of these data is patent US20250034097A1, “MICROBIOCIDAL ISONICOTINIC AMIDE DERIVATIVES” (SYNGENTA CROP PROTECTION AG, priority 2021, published 2025).

As usually defined, the inhibition of growth is the percentage by which the read-out fell short of the control. Higher therefore signals a response far below the control.

Regarding `Cc1ncc(Oc2cccc(C3CC3)c2)c(C(=O)NCCc2ccc(Cl)cc2Cl)n1` [Compound 1.1, 5-(3-cyclopropylphenoxy)-N-[2-(2,4-dichlorophenyl)ethyl]-2-methyl-pyrimidine-4-carboxamide], the inhibition of growth at 20 ppm in the experiment with Glomerella lagenarium is ≥ 80%.

As for `Cc1ncc(Oc2cccc(C3CC3)c2)c(C(=O)NCC(F)c2ccc(Cl)cc2Cl)n1` (centres unmarked) [Compound 1.2, 5-(3-cyclopropylphenoxy)-N-[2-(2,4-dichlorophenyl)-2-fluoro-ethyl]-2-methyl-pyrimidine-4-carboxamide], the inhibition of growth at 20 ppm in the experiment with Glomerella lagenarium is ≥ 80%. In the experiment on Pyrenophora teres, the “control of Pyrenophora teres” value was “at least 80%”. In addition, in the experiment with Monographella nivalis, the “control of Monographella nivalis” value is “at least 80%”. The “control of Sclerotinia sclerotiorum” value with Sclerotinia sclerotiorum is “at least 80%”. Moreover, the “control of Alternaria solani” value with Alternaria solani is “at least 80%”.

As for `Cc1nncc(Oc2cccc(C3CC3)c2)c1C(=O)NCC(F)c1ccc(Cl)cc1Cl` (centres unmarked) [Compound 2.1, 5-(3-cyclopropylphenoxy)-N-[2-(2,4-dichlorophenyl)-2-fluoro-ethyl]-3-methyl-pyridazine-4-carboxamide], the inhibition of growth at 20 ppm in the experiment with Glomerella lagenarium was ≥ 80%.

For `CC(C)Oc1nncc(Oc2cccc(C3CC3)c2)c1C(=O)NCC(F)c1ccc(Cl)cc1Cl` (centres unmarked) [Compound 2.4, 5-(3-cyclopropylphenoxy)-N-[2-(2,4-dichlorophenyl)-2-fluoro-ethyl]-3-isopropoxy-pyridazine-4-carboxamide], in the experiment on Glomerella lagenarium, the inhibition of growth at 20 ppm was ≥ 80%.

As to `C=C(C)COc1nncc(Oc2cccc(C3CC3)c2)c1C(=O)NCC(F)c1ccc(Cl)cc1Cl` (centres unmarked) [Compound 2.5, 5-(3-cyclopropylphenoxy)-N-[2-(2,4-dichlorophenyl)-2-fluoro-ethyl]-3-(2-methylallyloxy)pyridazine-4-carboxamide], the inhibition of growth at 20 ppm in the experiment with Glomerella lagenarium is ≥ 80%.

Turning to `O=C(NCC(F)c1ccc(Cl)cc1Cl)c1c(Oc2cccc(C3CC3)c2)cnnc1C#CC1CC1` (centres unmarked) [Compound 2.6, 3-(2-cyclopropylethynyl)-5-(3-cyclopropylphenoxy)-N-[2-(2,4-dichlorophenyl)-2-fluoro-ethyl]pyridazine-4-carboxamide], in the experiment on Glomerella lagenarium, the inhibition of growth at 20 ppm was ≥ 80%.

For the molecule `C=C(C)c1nncc(Oc2cccc(C3CC3)c2)c1C(=O)NCC(F)c1ccc(Cl)cc1Cl` (centres unmarked) [Compound 2.7, 5-(3-cyclopropylphenoxy)-N-[2-(2,4-dichlorophenyl)-2-fluoro-ethyl]-3-isopropenyl-pyridazine-4-carboxamide], the inhibition of growth at 20 ppm in the experiment with Glomerella lagenarium was ≥ 80%.

`O=C(NCC(F)c1ccc(Cl)cc1Cl)c1c(Oc2cccc(C3CC3)c2)cnnc1C1CC1` (centres unmarked) [Compound 2.8, 3-cyclopropyl-5-(3-cyclopropylphenoxy)-N-[2-(2,4-dichlorophenyl)-2-fluoro-ethyl]pyridazine-4-carboxamide]: the inhibition of growth at 20 ppm in the experiment with Glomerella lagenarium is ≥ 80%.

Regarding `CC(C)c1nncc(Oc2cccc(C3CC3)c2)c1C(=O)NCC(F)c1ccc(Cl)cc1Cl` (centres unmarked) [Compound 2.9, 5-(3-cyclopropylphenoxy)-N-[2-(2,4-dichlorophenyl)-2-fluoro-ethyl]-3-isopropyl-pyridazine-4-carboxamide], the inhibition of growth at 20 ppm with Glomerella lagenarium is ≥ 80%.

`O=C(NCC(F)c1ccc(Cl)cc1Cl)c1cnncc1Oc1cccc(C2CC2)c1` (centres unmarked) [Compound 2.10, 5-(3-cyclopropylphenoxy)-N-[2-(2,4-dichlorophenyl)-2-fluoro-ethyl]pyridazine-4-carboxamide]: the inhibition of growth at 20 ppm in the experiment on Glomerella lagenarium is ≥ 80%.

Turning to `COc1nncc(Oc2cccc(C3CC3)c2)c1C(=O)NCCc1ccc(Cl)cc1Cl` [Compound 2.12, 5-(3-cyclopropylphenoxy)-N-[2-(2,4-dichlorophenyl)ethyl]-3-methoxy-pyridazine-4-carboxamide], in the experiment with Glomerella lagenarium, the inhibition of growth at 20 ppm is ≥ 80%.

Consider `O=C(NCC(F)c1ccc(Cl)cc1Cl)c1c(Oc2cccc(C3CC3)c2)cnnc1O` (centres unmarked) [Compound 2.15, 5-(3-cyclopropylphenoxy)-N-[2-(2,4-dichlorophenyl)-2-fluoro-ethyl]-3-hydroxy-pyridazine-4-carboxamide], for which the inhibition of growth at 20 ppm in the experiment with Glomerella lagenarium was ≥ 80%.

On to `CC(C)c1nncc(Oc2cccc(C3CC3)c2)c1C(=O)NC[C@H](F)c1ccc(Cl)cc1Cl` [Compound 2.16, 5-(3-cyclopropylphenoxy)-N-[(2R)-2-(2,4-dichlorophenyl)-2-fluoro-ethyl]-3-isopropyl-pyridazine-4-carboxamide], for which the inhibition of growth at 20 ppm in the experiment on Glomerella lagenarium is ≥ 80%.
